Results from patent publication US20110008465A1, “SESQUITERPENE FORMULATIONS, KITS AND METHODS OF USE THEREOF” (priority 2007, published 2011).

Assays:
Assay in all cases: Chou and Talalay combination assay with beta-caryophyllene
Settings in all cases: anticancer drug in combination with beta-caryophyllene; Chou and Talalay CI; 48 h
A-549 (lung cancer) = assay type: cell-based, human
Protocol: (§1) Each solution was prepared fresh and use within 1 hour after preparation.
(§2) Cells were then harvested using trypsine-EDTA. Cells were counted using a hemocytometer and resuspended in DMEM+10% FBS medium.
(§3) Proliferation assay: Increasing concentrations of the anticancer agents and/or beta-caryophyllene were added to 96-well plate (100 μL per well). The final concentration of solvent in the culture medium was maintained below 0.5% (volume/volume) to avoid solvent toxicity.
(§4) The cells were incubated for 48 h at 37° C. and 5% CO2. Cytotoxicity was assessed using the resazurin reduction test (O'Brien et al., 2000). Fluorescence was measured on an automated 96-well Fluoroskan Ascent FI™ plate reader (Labsystems) using excitation and emission wavelengths of 530 nm and 590 nm, respectively. Resazurin was then removed.
(§5) Microplates were frozen at −20° C. overnight. Plates were thawed, a volume of 100 μl of 0.01% SDS in water was added to the wells, the plates were shaken at room temperature for 3 hours and then frozen once more at −20° C. overnight. […] Plates were shaken in the dark (at room temperature) for at least 2 hours, and fluorescence was measured on an automated 96-well Fluoroskan Ascent FI™ plate reader (Labsystems) using excitation and emission wavelengths of 360 nm and 460 nm, respectively.
(§6) Results were analyzed using the Chou and Talalay method (9) and may be interpreted as follow: Cl>1 represents an antagonist effect of beta-caryophyllene with the corresponding anticancer agent; Cl=1 represents an additive effect of beta-caryophyllene with the corresponding anticancer agent; Cl<1 represents a potentiating effect of beta-caryophyllene with the corresponding anticancer agent.

DLD-1 (colon cancer) = assay type: cell-based, human
Protocol: as §1, §2, §3, §4, §5, §6

MCF-7 (breast cancer) = assay type: cell-based, human
Protocol: as §1, §2, §3, §4, §5, §6

[1] = tested on: MDA-MB-231 (breast cancer); assay type: cell-based, human
Protocol: as §1, §2, §3, §4, §5, §6

PA-1 (ovary cancer) = assay type: cell-based, human
Protocol: as §1, §2, §3, §4, §5, §6

PC-3 (prostate cancer) = assay type: cell-based, human
Protocol: as §1, §2, §3, §4, §5

B16 (murine melanoma) = assay type: cell-based
Protocol: as §1, §2, §3, §4, §5, §6

[2] = tested on: GL-261 (murine glioblastoma); assay type: cell-based
Protocol: as §1, §2, §3, §4, §5, §6

MEL-2 (human melanoma) = assay type: cell-based
Protocol: as §1, §2, §3, §4, §5, §6

[3] = tested on: U-251 (human glioblastoma); assay type: cell-based
Protocol: as §1, §2, §3, §4, §5, §6

Structure (SMILES)	Potentiating activity A-549 (A-549 (lung cancer))	Potentiating activity DLD-1 (DLD-1 (colon cancer))	Potentiating activity MCF-7 (MCF-7 (breast cancer))	Potentiating activity MDA [1]	Potentiating activity PA-1 (PA-1 (ovary cancer))	Potentiating activity PC-3 (PC-3 (prostate cancer))	Potentiating activity B16 (B16 (murine melanoma))	Potentiating activity GL-261 [2]	Potentiating activity MEL-2 (MEL-2 (human melanoma))	Potentiating activity U-251 [3]
O=c1[nH]cc(F)c(=O)[nH]1 [5-fluorouracil, 5-Fluorouracil]	(6) (Antagonist effect: CI > 1)	(3) (Moderate: 0.5 < CI < 0.8 at IC50)	(1) (Very High: CI equal or below 1 at IC20 and Cl below 0.6 to IC50)	(3) (Moderate: 0.5 < CI < 0.8 at IC50)	(2) (High: CI < 0.5 to IC50)	(2) (High: CI < 0.5 to IC50)	(1) (Very High: potentiating or additive activity to IC20 and CI < 0.6 to IC50)	(3) (Moderate: 0.5 < CI < 0.8 to IC50)	(1) (Very High: potentiating or additive activity to IC20 and CI < 0.6 to IC50)	(1) (Very High: potentiating or additive activity to IC20 and CI < 0.6 to IC50)
N.N.O=C([O-])C1(C(=O)[O-])CCC1.[Pt+2] [Carboplatin, carboplatin]	(1) (Very High: CI equal or below 1 at IC20 and Cl below 0.6 to IC50)	(3) (Moderate: 0.5 < CI < 0.8 at IC50)	(1) (Very High: CI equal or below 1 at IC20 and Cl below 0.6 to IC50)	(3) (Moderate: 0.5 < CI < 0.8 at IC50)	(3) (Moderate: 0.5 < CI < 0.8 to IC50)	(6) (Antagonist effect: CI > 1)	(1) (Very High: potentiating or additive activity to IC20 and CI < 0.6 to IC50)	(2) (High: CI < 0.5 to IC50)	(3) (Moderate: 0.5 < CI < 0.8 to IC50)	(3) (Moderate: 0.5 < CI < 0.8 to IC50)
O=NN(CCCl)C(=O)NCCCl [Carmustine, carmustine]	(1) (Very High: CI equal or below 1 at IC20 and Cl below 0.6 to IC50)	(2) (High: CI below 0.5 at IC50)	(1) (Very High: CI equal or below 1 at IC20 and Cl below 0.6 to IC50)	(3) (Moderate: 0.5 < CI < 0.8 at IC50)	(1) (Very High: potentiating or additive activity to IC20 and CI < 0.6 to IC50)	(1) (Very High: potentiating or additive activity to IC20 and CI < 0.6 to IC50)	(1) (Very High: potentiating or additive activity to IC20 and CI < 0.6 to IC50)	(1) (Very High: potentiating or additive activity to IC20 and CI < 0.6 to IC50)	(1) (Very High: potentiating or additive activity to IC20 and CI < 0.6 to IC50)	(1) (Very High: potentiating or additive activity to IC20 and CI < 0.6 to IC50)
O=C(O)CCCc1ccc(N(CCCl)CCCl)cc1 [Chlorambucil, chlorambucil]	(3) (Moderate: 0.5 < CI < 0.8 at IC50)	(3) (Moderate: 0.5 < CI < 0.8 at IC50)	(1) (Very High: CI equal or below 1 at IC20 and Cl below 0.6 to IC50)	(1) (Very High: CI equal or below 1 at IC20 and Cl below 0.6 to IC50)	(3) (Moderate: 0.5 < CI < 0.8 to IC50)		(1) (Very High: potentiating or additive activity to IC20 and CI < 0.6 to IC50)	(6) (Antagonist effect: CI > 1)	(1) (Very High: potentiating or additive activity to IC20 and CI < 0.6 to IC50)	(2) (High: CI < 0.5 to IC50)
